The values below come from patent US20060253078A1, “Method of treating skin disorders with stratum corneum piercing device” (priority 2005, published 2006).

The nature of the series: In vitro electrode-salicylic acid compatibility (color change of test solution). It counts as physicochemical. The settings on record: for Solution color change: 1.5% salicylic acid in 50% ethanol/50% water, cathode Platinum. As for the experimental part:
The following experiment was conducted to determine the compatibility of electrodes with salicylic acid. A pair of test electrodes was immersed in 5 ml of 1.5% salicylic acid solution (solvent 50% ethanol/50% water). A pre-determined voltage was applied to the electrodes (by connecting the electrodes to a battery or batteries) for certain length of time as indicated in Table 3. Observations were made on color change of the test solution.

Take `O=C(O)c1ccccc1O` [salicylic acid]: the Solution color change result is reported as “Colorless → yellow” (anode Platinum, 3 V, 10 min); “Colorless → brown” (anode Platinum, 9 V, 10 min); “No color change” (anode Zinc, 1.5 V, 10 min); “No color change” (anode Zinc, 3 V, 10 min); “No color change” (anode Zinc, 9 V, 30 min). Moreover, the “Discoloration of the solution (compatibility with salicylic acid)” value was “resulted in discoloration” (platinum anode) and “no discoloration” (zinc anode, during passage of electric current).
